From paper PMC6216040, “Repurposing of an old drug: In vitro and in vivo efficacies of buparvaquone against Echinococcus multilocularis” (International Journal for Parasitology: Drugs and Drug …, 2018)
Like-named read-outs stand apart in the source and are kept apart here.

System: E. multilocularis metacestodes
Test: PGI-assay: drug-induced damage on in vitro cultured metacestodes (Pathogen Box screening cascade and EC50)
Assay type: cell-based, Echinococcus multilocularis
Conditions: for PGI release, % of the Tx-100 control, 5d / PGI release, % of the Tx-100 control, 12d / cytotoxicity at 10 µM: 10 µM, singlets; for cytotoxicity at 10 µM: Echinococcus multilocularis
[1] = confirmatory screening at 10 µM in triplicates, 5 days of incubation, values as % of Tx-100 control
[2] = confirmatory screening at 10 µM in triplicates, 12 days of incubation, values as % of Tx-100 control

Row | Molecule | PGI release, % of the Tx-100 control, 5d (5 days of incubation) [%] | PGI release, % of the Tx-100 control, 12d (12 days of incubation) [%] | also measured
1 | CC(c1cc(Cl)cc(Cl)c1)N(C)c1ncc2c(N)nc(N)nc2n1 (stereo not drawn) [MMV689437] | 4.64 | 4.83 | –
2 | CNc1cc(C)nc(C2CN(C(=O)c3n[nH]c4ccccc34)CCO2)c1 (stereo not drawn) [MMV689709] | -5.26 | 58.81 | PGI release, % of Tx-100 control, average, 5d [1]: -0.32%; PGI release, % of Tx-100 control, average, 12d [2]: -0.96%
3 | COc1nc2ccc(Br)cc2cc1[C@@H](c1ccccc1)[C@@](O)(CCN(C)C)c1cccc2ccccc12 [MMV689758, Bedaquiline, reference compound] | – | – | cytotoxicity at 10 µM (120 h, 5 days of incubation, read-out: PGI release, % of the Tx-100 control, 5d): 2.07%; cytotoxicity at 10 µM (288 h, 12 days of incubation, read-out: PGI release, % of the Tx-100 control, 12d): -3.22%
4 | COc1ccc(C2=NN(C3CCCCCC3)C(=O)[C@@H]3CC=CC[C@H]23)cc1OCCCCOc1ccc(-c2nn[nH]n2)cc1 [MMV690027] | 9.58 | 27.83 | PGI release, % of Tx-100 control, average, 5d [1]: 0.20%; PGI release, % of Tx-100 control, average, 12d [2]: 0.24%
5 | COc1ccc(C2=NN(C3CCCCCC3)C(=O)C2(C)C)cc1OCCCCOc1ccc(-c2nn[nH]n2)cc1 [MMV690028] | 2.30 | 6.47 | –
6 | COc1ccc(Oc2ccc([C@@H](C)N(C)c3ncc4c(N)nc(N)nc4n3)cc2)cc1 [MMV690102] | 73.64 | 91.71 | PGI release, % of Tx-100 control, average, 5d (1 µM, triplicates, 5 days of incubation): -0.29%; PGI release, % of Tx-100 control, average, 12d (1 µM, triplicates, 12 days of incubation): 5.50%; activity in the screen at 10 μM (confirmed in triplicates, >20% relative PGI release) (10 μM, 5 and 12 days): active; PGI release, % of Tx-100 control, average, 5d [1]: 25.36%; PGI release, % of Tx-100 control, average, 12d [2]: 31.53%
7 | C[C@H](c1ccc2c(c1)CCCC2)N(C)c1ncc2c(N)nc(N)nc2n1 [MMV690103] | -3.58 | 41.60 | PGI release, % of Tx-100 control, average, 5d [1]: -0.48%; PGI release, % of Tx-100 control, average, 12d [2]: 4.22%
8 | CCc1ccc(C(NCc2nc(N)nc(N(C)C)n2)C(C)C)cc1 (stereo not drawn) [MMV1019989] | 0.39 | -3.04 | –
9 | O=C(Nc1nc(-c2ccccn2)cs1)C1CC1c1ccccc1F (stereo not drawn) [MMV1028806] | -2.32 | -0.32 | –
10 | CNC(=O)CNc1nc(-c2ccccn2)nc2scc(-c3ccccc3)c12 [MMV1029203] | -5.65 | 6.41 | –
11 | CCCn1c(NC(=O)c2ccc3ccccc3n2)nc2ccccc21 [MMV1030799] | 3.64 | 13.68 | –
12 | CCNC(=O)C(C)Nc1nc(-c2cccnc2)nc2sc(C)c(C)c12 (stereo not drawn) [MMV1037162] | 0.19 | -2.69 | –
13 | Cc1ccc(-c2nc(CN(Cc3ccccn3)C(C)C)cs2)o1 [MMV1088520] | -5.44 | -2.75 | –
14 | COc1cccn2c(C(=O)N3CCCCC3)c(C(F)(F)F)nc12 [MMV1110498] | -3.14 | 0.63 | –
15 | Cc1cc(OCC(=O)Nc2ccc(C(C)C)cc2)n(C)c(=O)c1C#N [MMV1198433] | 2.43 | -0.19 | –
16 | CCOC(=O)c1noc(N)c1-c1ccccc1 [MMV1236379] | 3.51 | 4.87 | –
17 | Levofloxacin (-)-ofloxacin [MMV687798, reference compound] | -0.0541 | -0.33 | –
